# ChEMBL document CHEMBL5303765, “Data for DCP probe BAY-7081” (2023)
# Tests used:
# [1] = biological target: cGMP-inhibited 3',5'-cyclic phosphodiesterase 3A (Homo sapiens) (UniProt Q14432); assay: Panlabs assay PDE3A; design: compound concentration 10 uM; details: at 10 µM
# [2] = biological target: cGMP-inhibited 3',5'-cyclic phosphodiesterase 3B (Homo sapiens, UniProt Q13370); assay: Panlabs assay PDE3B; design: compound concentration 10 uM; details: at 10 µM
# [3] = biological target: cAMP and cAMP-inhibited cGMP 3',5'-cyclic phosphodiesterase 10A (Homo sapiens, UniProt Q9Y233); assay: Panlabs assay PDE10A2; design: compound concentration 10 uM; details: at 10 µM
# [4] = biological target: P2X receptor (Rattus norvegicus) (UniProt P51579+P49653+P51578+Q64663+P47824+P51577+P49654); assay: Purinergic P2X Eurofins Panlabs panel; assay type: protein assay; details: concentration not given here
# [5] = biological target: Sodium-dependent serotonin transporter (Homo sapiens) (UniProt P31645); assay: Transporter, Serotonin (5-Hydroxytryptamine) (SERT) Eurofins Panlabs panel; details: Compound concentration 10.0 uM
# [6] = biological target: Androgen receptor (Homo sapiens) (UniProt P10275); assay: Androgen (Testosterone) Eurofins Panlabs panel; details: Compound concentration 10.0 uM
# [7] = biological target: Growth hormone secretagogue receptor type 1 (Homo sapiens) (UniProt Q92847); assay: Growth Hormone Secretagogue (GHS, Ghrelin) Eurofins Panlabs panel; details: Compound concentration 10.0 uM
# [8] = biological target: 5-hydroxytryptamine receptor 2B (Homo sapiens) (UniProt P41595); assay: Serotonin (5-Hydroxytryptamine) 5-HT2B Eurofins Panlabs panel; details: Compound concentration 10.0 uM
# [9] = biological target: Prostaglandin E2 receptor EP3 subtype (Homo sapiens) (UniProt P43115); assay: Prostanoid EP3 Eurofins Panlabs panel; details: concentration not given here
# [10] = biological target: Glutamate receptor ionotropic, kainate (Rattus norvegicus) (UniProt P22756+Q01812+P42260+P42264+Q63273); assay: Glutamate, Kainate Eurofins Panlabs panel; assay type: protein-complex assay; details: Compound concentration 10.0 uM
# [11] = biological target: GABA-A receptor; anion channel (Rattus norvegicus) (UniProt O09028+P15431+P18506+P18508+P19969+P20236+P23574+P23576+P28471+P28473+P30191+P62813+P63079+P63138+Q91ZM7+Q9ES14); assay: GABAA, Chloride Channel, TBOB Eurofins Panlabs panel; assay type: protein-complex assay; details: Compound concentration 10.0 uM
# [12] = biological target: Adenosine receptor A2a (Homo sapiens) (UniProt P29274); assay: Adenosine A2A Eurofins Panlabs panel; details: Compound concentration 10.0 uM
# Adenosine receptor A2a (Homo sapiens), sequence (P29274 whole entry): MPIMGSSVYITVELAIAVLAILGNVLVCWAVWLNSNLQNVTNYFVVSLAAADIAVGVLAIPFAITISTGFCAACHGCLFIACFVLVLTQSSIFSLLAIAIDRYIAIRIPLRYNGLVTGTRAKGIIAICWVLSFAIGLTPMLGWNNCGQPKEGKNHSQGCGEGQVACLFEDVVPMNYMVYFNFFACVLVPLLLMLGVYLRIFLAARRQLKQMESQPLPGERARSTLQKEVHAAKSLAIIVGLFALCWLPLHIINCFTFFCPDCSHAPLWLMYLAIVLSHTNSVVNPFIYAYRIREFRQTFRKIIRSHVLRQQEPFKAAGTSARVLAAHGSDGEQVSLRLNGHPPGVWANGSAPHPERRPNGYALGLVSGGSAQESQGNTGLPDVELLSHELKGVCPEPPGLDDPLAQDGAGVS
# Growth hormone secretagogue receptor type 1 (Homo sapiens), sequence (Q92847 whole entry): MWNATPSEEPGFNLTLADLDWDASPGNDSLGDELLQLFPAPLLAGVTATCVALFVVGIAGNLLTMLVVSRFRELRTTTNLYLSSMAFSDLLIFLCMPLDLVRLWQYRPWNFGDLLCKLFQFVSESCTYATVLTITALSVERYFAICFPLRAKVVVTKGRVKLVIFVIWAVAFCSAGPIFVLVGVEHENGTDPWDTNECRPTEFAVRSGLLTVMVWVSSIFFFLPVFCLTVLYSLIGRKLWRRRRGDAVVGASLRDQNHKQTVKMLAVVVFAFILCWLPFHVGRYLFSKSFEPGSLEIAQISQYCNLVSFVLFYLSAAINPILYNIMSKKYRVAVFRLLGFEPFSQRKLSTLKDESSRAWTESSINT
# Androgen receptor (Homo sapiens), sequence (P10275 whole entry): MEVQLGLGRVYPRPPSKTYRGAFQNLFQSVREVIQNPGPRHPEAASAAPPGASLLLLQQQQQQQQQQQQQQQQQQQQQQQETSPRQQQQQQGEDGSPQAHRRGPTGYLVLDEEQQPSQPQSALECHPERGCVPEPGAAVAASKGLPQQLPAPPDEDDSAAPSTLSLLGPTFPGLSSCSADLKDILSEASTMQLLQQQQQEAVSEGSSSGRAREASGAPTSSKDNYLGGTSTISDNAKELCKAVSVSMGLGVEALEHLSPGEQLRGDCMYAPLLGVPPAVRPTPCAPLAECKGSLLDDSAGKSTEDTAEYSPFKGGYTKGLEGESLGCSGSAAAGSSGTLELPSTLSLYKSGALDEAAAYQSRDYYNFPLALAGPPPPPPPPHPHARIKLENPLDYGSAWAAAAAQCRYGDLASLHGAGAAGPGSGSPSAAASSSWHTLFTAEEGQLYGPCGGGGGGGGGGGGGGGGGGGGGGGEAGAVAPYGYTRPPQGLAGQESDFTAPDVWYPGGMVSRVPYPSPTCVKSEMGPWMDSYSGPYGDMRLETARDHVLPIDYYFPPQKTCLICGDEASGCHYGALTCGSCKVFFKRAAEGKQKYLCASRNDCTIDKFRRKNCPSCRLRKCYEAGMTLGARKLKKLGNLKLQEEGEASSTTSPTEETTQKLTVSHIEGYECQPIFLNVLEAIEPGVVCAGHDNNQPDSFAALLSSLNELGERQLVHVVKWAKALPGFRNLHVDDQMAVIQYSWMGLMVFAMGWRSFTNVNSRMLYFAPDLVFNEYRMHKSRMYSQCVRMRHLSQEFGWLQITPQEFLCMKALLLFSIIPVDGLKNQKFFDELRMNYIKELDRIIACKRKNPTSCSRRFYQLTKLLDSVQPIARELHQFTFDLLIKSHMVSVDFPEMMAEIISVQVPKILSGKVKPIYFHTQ
# cGMP-inhibited 3',5'-cyclic phosphodiesterase 3A (Homo sapiens), sequence (Q14432 whole entry): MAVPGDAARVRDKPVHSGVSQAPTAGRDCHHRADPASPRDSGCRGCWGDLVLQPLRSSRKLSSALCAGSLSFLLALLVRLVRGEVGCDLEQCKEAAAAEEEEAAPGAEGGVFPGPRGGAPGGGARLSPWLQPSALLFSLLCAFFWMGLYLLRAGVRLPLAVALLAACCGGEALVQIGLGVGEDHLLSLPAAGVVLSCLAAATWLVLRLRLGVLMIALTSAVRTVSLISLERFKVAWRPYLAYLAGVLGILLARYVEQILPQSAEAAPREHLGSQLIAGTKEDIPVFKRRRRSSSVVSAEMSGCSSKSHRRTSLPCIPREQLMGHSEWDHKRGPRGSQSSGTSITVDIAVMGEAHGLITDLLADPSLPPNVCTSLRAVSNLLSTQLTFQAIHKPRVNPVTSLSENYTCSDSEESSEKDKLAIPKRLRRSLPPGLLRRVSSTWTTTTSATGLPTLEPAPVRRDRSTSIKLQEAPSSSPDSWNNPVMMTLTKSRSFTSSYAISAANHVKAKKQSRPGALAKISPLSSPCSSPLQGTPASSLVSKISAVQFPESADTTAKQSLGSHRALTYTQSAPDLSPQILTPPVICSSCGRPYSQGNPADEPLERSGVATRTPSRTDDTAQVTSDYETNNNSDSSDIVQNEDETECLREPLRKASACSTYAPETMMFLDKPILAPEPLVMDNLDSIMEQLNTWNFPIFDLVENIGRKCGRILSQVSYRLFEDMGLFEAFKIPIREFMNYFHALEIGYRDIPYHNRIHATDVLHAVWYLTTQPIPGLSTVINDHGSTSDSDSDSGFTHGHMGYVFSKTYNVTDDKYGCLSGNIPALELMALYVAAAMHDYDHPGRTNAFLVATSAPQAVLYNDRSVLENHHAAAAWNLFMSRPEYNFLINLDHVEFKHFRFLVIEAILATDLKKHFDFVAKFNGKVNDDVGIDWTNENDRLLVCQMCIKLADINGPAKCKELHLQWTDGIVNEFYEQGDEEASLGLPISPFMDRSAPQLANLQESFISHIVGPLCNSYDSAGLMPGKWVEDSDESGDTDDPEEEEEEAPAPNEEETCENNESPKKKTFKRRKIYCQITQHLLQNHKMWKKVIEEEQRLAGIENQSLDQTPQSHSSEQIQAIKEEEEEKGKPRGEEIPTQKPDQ
# cGMP-inhibited 3',5'-cyclic phosphodiesterase 3B, sequence (Q13370 whole entry, looked up): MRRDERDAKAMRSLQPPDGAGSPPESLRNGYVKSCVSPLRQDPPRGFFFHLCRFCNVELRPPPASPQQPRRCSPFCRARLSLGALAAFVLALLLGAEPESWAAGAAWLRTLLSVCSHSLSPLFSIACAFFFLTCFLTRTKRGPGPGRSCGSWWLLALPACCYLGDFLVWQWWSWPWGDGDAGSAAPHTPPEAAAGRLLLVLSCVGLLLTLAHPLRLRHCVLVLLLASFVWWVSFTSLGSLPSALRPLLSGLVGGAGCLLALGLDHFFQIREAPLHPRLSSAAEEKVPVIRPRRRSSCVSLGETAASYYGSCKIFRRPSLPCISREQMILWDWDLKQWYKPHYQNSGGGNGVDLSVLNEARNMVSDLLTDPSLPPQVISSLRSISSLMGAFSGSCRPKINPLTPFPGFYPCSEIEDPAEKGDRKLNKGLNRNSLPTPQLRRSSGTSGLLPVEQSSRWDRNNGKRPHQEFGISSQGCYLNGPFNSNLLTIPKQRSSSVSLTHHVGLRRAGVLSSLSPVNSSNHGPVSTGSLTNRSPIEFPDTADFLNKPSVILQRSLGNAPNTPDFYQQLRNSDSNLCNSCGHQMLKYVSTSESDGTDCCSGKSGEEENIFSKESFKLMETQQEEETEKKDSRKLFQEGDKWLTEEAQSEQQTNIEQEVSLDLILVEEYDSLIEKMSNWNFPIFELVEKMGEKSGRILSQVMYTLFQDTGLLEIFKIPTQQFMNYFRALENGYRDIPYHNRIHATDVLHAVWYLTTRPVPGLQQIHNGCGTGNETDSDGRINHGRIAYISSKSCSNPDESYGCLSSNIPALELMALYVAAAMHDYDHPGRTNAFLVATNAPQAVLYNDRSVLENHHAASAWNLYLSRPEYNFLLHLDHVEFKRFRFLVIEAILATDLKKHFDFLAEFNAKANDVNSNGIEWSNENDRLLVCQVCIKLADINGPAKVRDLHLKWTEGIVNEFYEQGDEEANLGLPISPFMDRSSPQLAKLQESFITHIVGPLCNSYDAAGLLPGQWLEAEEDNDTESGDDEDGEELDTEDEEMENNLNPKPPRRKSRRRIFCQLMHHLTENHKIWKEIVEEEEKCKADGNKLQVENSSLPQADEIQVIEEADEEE
# Prostaglandin E2 receptor EP3 subtype (Homo sapiens), sequence (P43115 whole entry): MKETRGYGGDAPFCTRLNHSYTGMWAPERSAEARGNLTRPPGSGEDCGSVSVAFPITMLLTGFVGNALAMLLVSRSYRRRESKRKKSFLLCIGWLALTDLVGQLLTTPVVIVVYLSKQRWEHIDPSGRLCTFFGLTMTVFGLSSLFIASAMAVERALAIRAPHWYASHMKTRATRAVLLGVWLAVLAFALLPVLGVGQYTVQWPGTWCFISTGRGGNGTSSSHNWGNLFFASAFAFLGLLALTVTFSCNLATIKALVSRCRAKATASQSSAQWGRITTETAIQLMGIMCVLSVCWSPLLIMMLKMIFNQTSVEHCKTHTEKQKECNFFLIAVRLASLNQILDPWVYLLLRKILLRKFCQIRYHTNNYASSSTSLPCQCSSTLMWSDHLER
# Sodium-dependent serotonin transporter (Homo sapiens), sequence (P31645 whole entry, looked up): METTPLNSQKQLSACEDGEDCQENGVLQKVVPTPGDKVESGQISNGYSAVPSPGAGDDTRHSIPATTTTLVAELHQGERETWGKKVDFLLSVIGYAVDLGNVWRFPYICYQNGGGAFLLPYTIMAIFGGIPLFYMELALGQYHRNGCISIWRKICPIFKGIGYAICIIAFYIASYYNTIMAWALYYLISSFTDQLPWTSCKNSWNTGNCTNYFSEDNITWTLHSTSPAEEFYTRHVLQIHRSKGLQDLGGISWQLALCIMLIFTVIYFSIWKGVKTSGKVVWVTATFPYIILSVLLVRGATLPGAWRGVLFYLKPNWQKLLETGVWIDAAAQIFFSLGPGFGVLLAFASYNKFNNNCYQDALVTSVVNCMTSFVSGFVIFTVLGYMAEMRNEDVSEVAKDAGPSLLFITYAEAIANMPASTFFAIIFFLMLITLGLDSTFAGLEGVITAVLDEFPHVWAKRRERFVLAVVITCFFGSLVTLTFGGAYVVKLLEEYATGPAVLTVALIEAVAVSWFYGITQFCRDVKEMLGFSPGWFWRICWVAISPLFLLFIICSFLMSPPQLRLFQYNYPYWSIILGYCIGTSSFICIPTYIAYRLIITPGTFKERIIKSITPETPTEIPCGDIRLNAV
SMILES,inhibition [1] [%],inhibition [2] [%],inhibition [3] [%],inhibition [4] [%],inhibition [5] [%],inhibition [6] [%],inhibition [7] [%],inhibition [8] [%],inhibition [9] [%],inhibition [10] [%],inhibition [11] [%],inhibition [12] [%]
CCC[C@@H]1CNCc2c1[nH]c(=O)c(C#N)c2N1CCC2(CC1)CC2,-1.3,0.8,1.6,,,,,,,,,
CCC[C@H]1CNCc2c1[nH]c(=O)c(C#N)c2N1CCC2(CC1)CC2,,,,0,3.5,-6,9,13,0,-0.5,4,2
